Laboratory results taken from patent US10231967B2, “Compounds and their use as BACE inhibitors” (ASTRAZENECA AB, priority 2010, dated 2019).

These compounds were tested on sAPPβ release in SH-SY5Y cells (assay: sAPPβ release assay). Conditions: Homo sapiens, SH-SY5Y, 17 h, compounds incubated 17 h, MSD detection.
Type: cell-based
Outline: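 SH-SY5Y cells were exposed to compounds at 1% DMSO final for 17 h at 37 °C. Secreted sAPPβ in 20 μL of medium was quantified by MSD electrochemiluminescence immunoassay with 1 nM detection antibody. Cell plates were then used in an ATP assay for cytotoxicity.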

CO[C@H]1CC[C@]2(CC1)Cc1ccc(-c3cnc4[nH]cc(C)c4c3)cc1C21N=C(C)C(N)=N1 (stereo partly shown) [Example 116, (1r,4r)-4-Methoxy-5″-methyl-6′-(3-methyl-1H-pyrrolo[2,3-b]pyridin-5-yl)-3′H-dispiro[cyclohexane-1,2′-indene-1′,2″-imidazol]-4″-amine] and CO[C@H]1CC[C@]2(CC1)Cc1ccc(-c3ccc4[nH]cc(C)c4c3)cc1C21N=C(C)C(N)=N1 (stereo partly shown) [Example 121, (1r,4r)-4-Methoxy-5″-methyl-6′-(3-methyl-1H-indol-5-yl)-3′H-dispiro[cyclohexane-1,2′-indene-1′,2″-imidazol]-4″-amine] are within 1.5-fold of each other in IC50: 12 nM for the first, 10 nM for the second.

Compared with [2H]C([2H])([2H])O[C@H]1CC[C@]2(CC1)Cc1ccc(Br)cc1C21N=C(C)C(N)=N1 (stereo partly shown) [Example 117, (1r,4r)-6′-Bromo-5″-methyl-4-[(^2H3)methyloxy]-3′H-dispiro[cyclohexane-1,2′-indene-1′,2″-imidazol]-4″-amine], [2H]C([2H])([2H])O[C@H]1CC[C@]2(CC1)Cc1ccc(-c3cncc(Cl)c3)cc1C21N=C(C)C(N)=N1 (stereo partly shown) [Example 119, (1r,4r)-6′-(5-Chloropyridin-3-yl)-5′-methyl-4-[(^2H3)methyloxy]-3′H-dispiro[cyclohexane-1,2′-indene-1′,2″-imidazol]-4″-amine] is 48-fold lower in IC50: 47 nM for the first, 0.97 nM for the second.

Going from [2H]C([2H])([2H])O[C@H]1CC[C@]2(CC1)Cc1ccc(-c3cc(F)cc(C#N)c3)cc1C21N=C(C)C(N)=N1 (stereo partly shown) [Example 118, 3-{(1r,4r)-4″-Amino-5″-methyl-4-[(^2H3)methyloxy]-3′H-dispiro[cyclohexane-1,2′-indene-1′,2″-imidazol]-6′-yl}-5-fluorobenzonitrile] to [2H]C([2H])([2H])O[C@H]1CC[C@]2(CC1)Cc1ccc(-c3cc(Cl)cc(C#N)c3)cc1C21N=C(C)C(N)=N1 (stereo partly shown) [Example 125, 3-{(1r,4r)-4″-Amino-5″-methyl-4-[(^2H3)methyloxy]-3′H-dispiro[cyclohexane-1,2′-indene-1′,2″-imidazol]-6′-yl}-5-chlorobenzonitrile], the IC50 falls from 2.8 nM to 0.5 nM (5.6-fold).

Going from CC#Cc1cccc(-c2ccc3c(c2)C2(N=C(C)C(N)=N2)[C@]2(CC[C@H](OC)CC2)C3)c1Cl (stereo partly shown) [Example 123, (1r,4r)-6′-[2-Chloro-3-(prop-1-yn-1-yl)phenyl]-4-methoxy-5″-methyl-3′H-dispiro[cyclohexane-1,2′-indene-1′,2″-imidazol]-4″-amine] to CC1=NC2(N=C1N)c1cc(-c3cncc(Cl)c3)ccc1CC21CCC(C(F)F)CC1 (stereo not shown) [Example 129], the IC50 rises from 135 nM to 417 nM (3.1-fold).

In the case of CO[C@H]1CC[C@]2(CC1)Cc1ccc(OCC3CCC3)cc1C21N=C(C)C(N)=N1 (stereo partly shown) [Example 126, (1r,4r)-6′-(Cyclobutylmethoxy)-4-methoxy-5″-methyl-3′H-dispiro[cyclohexane-1,2′-indene-1′,2″-imidazol]-4″-amine], the IC50 is reported as 1.4 nM.

Same assay, conditions: Homo sapiens, compounds incubated 17 h, MSD detection

Going from CC1=NC2(N=C1N)c1cc(-c3cc(F)cc(C#N)c3)ccc1CC21CCC(=O)CC1 (stereo not shown) [Example 115, 3-(4″-Amino-5″-methyl-4-oxodispiro[cyclohexane-1,2′-[1H]indene-1′(3′H),2″-[2H]imidazol]-6′-yl)-5-fluorobenzonitrile] to COCc1cc(-c2ccc3c(c2)C2(N=C(C)C(N)=N2)[C@]2(CC[C@H](OC)CC2)C3)cc(C#N)c1F (stereo partly shown) [Example 127, 5-[(1r,4r)-4″-Amino-4-methoxy-5″-methyl-3′H-dispiro[cyclohexane-1,2′-indene-1′,2″-imidazol]-6′-yl]-2-fluoro-3-(methoxymethyl)benzonitrile], the IC50 falls from 293 nM to 5.1 nM (57-fold).

First: CO[C@H]1CC[C@]2(CC1)Cc1ccc(-c3cncc(C(F)F)c3)cc1C21N=C(C)C(N)=N1 (stereo partly shown) [Example 120, (1r,4r)-6′-[5-(Difluoromethyl)pyridin-3-yl]-4-methoxy-5″-methyl-3′H-dispiro[cyclohexane-1,2′-indene-1′,2″-imidazol]-4″-amine]
Second: CC1=NC2(N=C1N)c1cc(Br)ccc1CC21CCC(C(F)(F)F)CC1 (stereo not shown) [Example 124, 6′-Bromo-5″-methyl-4-(trifluoromethyl)-3′H-dispiro[cyclohexane-1,2′-indene-1′,2″-imidazol]-4″-amine]
The IC50 of the first is 2200-fold lower: 3.1 nM for the first, 6950 nM for the second. The first is the more potent here.
